Measured values as given in patent US9938222B2 (BRISTOL-MYERS SQUIBB COMPANY, priority 2014, dated 2018).

Target: human GPR120 (Homo sapiens (Human), UniProt Q5NUL3)
Experiment: GPR120 pERK AlphaScreen SureFire Assay (human GPR120 pERK assay)
Assay type: cell-based
Conditions: CHO cells stably transfected with short form of human GPR120
Source text: GPR120 activity was monitored by measuring phosphorylation of ERK (pERK), since G protein receptors are known to activate the ERK signaling cascade either directly and/or through recruitment of arrestin that serves as a scaffold for downstream signaling events.
GPR120 pERK AlphaScreen SureFire Assay
The human and mouse GPR120-mediated intracellular phosphorylated ERK assays were established using CHOA12 cells stably transfected with the short form of human or mouse GPR120 receptor. Cells were cultured in growth medium consisting of F-12 media (Invitrogen Cat. #11765) with 5% Charcoal/Dextran FBS (Invitrogen Cat. #12676-029), 500 μg/mL GENETICIN® (Life Technologies Cat. #10131-027) and 250 μg/mL Zeocin (Invitrogen Cat. #R250-01). Cells were cryo-preserved at a concentration of 2×10^7 cells/mL, in 90% Charcoal/Dextran FBS and 10% DMSO, and frozen in liquid nitrogen at a low passage number.
For the pERK assay, 2×10^7 cells/mL cryopreserved human and mouse cells were thawed rapidly in a 37° C. water bath and added to a T-225 flask containing 50 mL growth medium. The flasks were placed in a tissue culture incubator overnight (37° C., 5% CO2). The next day, cells were harvested with trypsin (Gibco Cat. #25300-054), resuspended in serum-containing growth medium and counted using a Cellometer and volume adjusted to a concentration of 0.6×10^6 cells/mL. Cells were plated into 384-well clear bottom tissue culture plates (BD Cat. #353962) at 50 μL/well, for a density of 30,000 cells/well using a MULTIDROP® and incubated for 16-18 hours (overnight) at 37° C. with 5% CO2. The next day, cells were serum starved in 30 μL of F-12 media without any serum or antibiotics for 2 hours at 37° C.
Test compounds were 3-fold, 11-point serially diluted in DMSO in a REMP assay plate (Matrix Cat. #4307) by Tecan and 5 μL was transferred into an ECHO source plate (Labcyte Cat. #LC-0200). Cells were then stimulated with 50 nL of compound dilutions using ECHO liquid handler for 7 min at 37° C. Compounds ranged from final assay concentrations of 33.33 μM to 0.56 nM.
The media was then dumped and cells lysed with 20 μL of 1× Lysis buffer from the AlphaScreen SureFire Phospho-ERK 1/2 Kit (Perkin Elmer Cat. #6760617M). The lysis buffer was diluted 5-fold with water before use. The plate was agitated on a shaker for 10 min after which 2 μL was transferred into a 384-well white proxiplate (Perkin Elmer Cat. #6008289). The SureFire assay reagent mix was prepared by mixing 60 parts Reaction Buffer, 10 parts Activation Buffer, 1 part Donor Beads, 1 part Acceptor Beads (Perkin Elmer Cat. #TGRES10K). 3.5 μL/well of this reagent mix was manually added to the proxiplate with a multichannel pipettor. Plates were spun down at 1000 rpm for 2 min, followed by light-protected incubation at room temperature for 2 hours. The plates were read on the Alpha-technology compatible Envision multilabel plate reader using AlphaScreen protocol according to manufacturer's specifications. The agonist effect of compounds was expressed as 100×(average sample-average blank)/(average total-average blank) where sample is the luminescence activity in the presence of test compound, blank is equal to the luminescence activity in the presence of DMSO control and the total is signal induced by 50 μM linolenic acid as reference compound. Activation data for the test compound over a range of concentrations was plotted as percentage activation of the test compound (100%=maximum response). After correcting for background, EC50 values were determined. The EC50 is defined as the concentration of test compound which produces 50% of the maximal response and was quantified using the 4 parameter logistic equation to fit the data.
The human and mouse GPR120-mediated intracellular phosphorylated ERK assays were also established using CHO-K1 cells stably transfected with the short form of human or mouse GPR120 receptor. […]

Chain of human GPR120 (Q5NUL3 whole entry): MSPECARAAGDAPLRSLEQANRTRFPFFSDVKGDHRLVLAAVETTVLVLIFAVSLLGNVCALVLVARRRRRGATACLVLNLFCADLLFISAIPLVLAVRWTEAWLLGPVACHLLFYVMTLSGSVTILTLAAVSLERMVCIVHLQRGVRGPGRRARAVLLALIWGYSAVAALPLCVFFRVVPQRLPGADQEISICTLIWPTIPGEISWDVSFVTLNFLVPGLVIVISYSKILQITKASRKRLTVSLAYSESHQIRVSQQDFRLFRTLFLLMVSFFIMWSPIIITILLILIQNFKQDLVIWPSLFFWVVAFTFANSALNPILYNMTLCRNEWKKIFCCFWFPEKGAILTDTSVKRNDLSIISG

Compound | EC50 [nM]
COc1cc(OC(C)C)cc(-c2ccc(OC[C@@H]3C[C@H]3C(=O)O)cc2)c1 (racemic) [Example 117, Trans-2-(((3′-isopropoxy-5′-methoxy-[1,1′-biphenyl]-4-yl)oxy)methyl) cyclopropanecarboxylic acid] | 1110
O=C(O)C1CC1COc1ccc(-c2cc(OC3CCCC3)ccc2F)cc1 (racemic) [Example 50, Trans-2-(((5′-cyclopentyloxy)-2′-fluoro-[1,1′-biphenyl]-4-yl)oxy)methyl) cyclopropanecarboxylic acid] | 260
O=C(O)[C@@H]1C[C@H]1COc1ccc(-c2cc(C(F)(F)F)ccc2F)cc1 (racemic) [Example 123, Trans-2-(((2′-fluoro-5′-(trifluoromethyl)-[1,1′-biphenyl]-4-yl)oxy)methyl)cyclopropanecarboxylic acid] | 680
CC(C)Oc1cc(Cl)cc(-c2ccc(OC[C@H]3C[C@@H]3C(=O)O)c(F)c2)c1 (racemic) [Example 12, Trans-2-(((3′-chloro-3-fluoro-5′-isopropoxy-[1,1′-biphenyl]-4-yl)oxy)methyl) cyclopropanecarboxylic acid] | 310
CC(C)Oc1cc(Cl)cc(-c2ccc(OC[C@@H]3C[C@H]3C(=O)O)cc2)c1 (racemic) [Example 120, Trans-2-(((3′-chloro-5′-isopropoxy-[1,1′-biphenyl]-4-yl)oxy)methyl) cyclopropanecarboxylic acid] | 620
CC(C)Oc1ccc(F)c(-c2ccc(OC[C@@H]3C[C@H]3C(=O)O)c(F)c2)c1 (racemic) [Example 62, Trans-2-(((2′,3-difluoro-5′-isopropoxy-[1,1′-biphenyl]-4-yl)oxy)methyl) cyclopropanecarboxylic acid] | 310
CC(C)Oc1ccc(F)c(-c2ccc(C[C@@H]3C[C@H]3CC(=O)O)cc2)c1 (single isomer, unassigned) [Example 35, Trans-(2-((2′-fluoro-5′-isopropoxy-[1,1′-biphenyl]-4-yl)methyl)cyclopropyl)acetic acid] | 330
O=C(O)[C@H]1CC1COc1ccc(-c2cc(Oc3cccc(F)c3)ccc2F)cc1F (some centres unmarked) [Example 98] | 200
CC(C)Oc1ccc(F)c(-c2ccc(OC[C@@H]3C[C@H]3C(=O)O)cc2)c1F (relative stereo) [Example 127, Trans-2-(((2′,6′-difluoro-3′-isopropoxy-[1,1′-biphenyl]-4-yl)oxy)methyl) cyclopropanecarboxylic acid] | 940
Cc1ccc(Oc2cc(F)c(F)c(-c3ccc(OCC4CC4C(=O)O)c(F)c3)c2)cc1F (racemic) [Example 107] | 310
COCc1cc(OC(C)C)cc(-c2ccc(OC[C@@H]3C[C@H]3C(=O)O)cc2)c1 (racemic) [Example 86, Trans-2-(((3′-isopropoxy-5′-(methoxymethyl)-[1,1′-biphenyl]-4-yl)oxy)methyl) cyclopropanecarboxylic acid] | 3620
CC(C)Oc1ccc(F)c(-c2ccc(OC[C@@H]3C[C@H]3C(=O)O)c(C=O)c2)c1 (racemic) [Example 87, Trans-2-(((2′-fluoro-3-formyl-5′-isopropoxy-[1,1′-biphenyl]-4-yl)oxy)methyl) cyclopropanecarboxylic acid] | 1760
O=C(O)[C@H]1CC1COc1ccc(-c2cc(Oc3cccc(F)c3)cnc2Cl)cc1 (some centres unmarked) [Example 113] | 120
COc1cc(OC(F)(F)F)cc(-c2ccc(OC[C@@H]3C[C@H]3C(=O)O)cc2)c1 (racemic) [Example 74, Trans-2-(((3′-methoxy-5′-(trifluoromethoxy)-[1,1′-biphenyl]-4-yl)oxy)methyl)cyclopropanecarboxylic acid] | 610
O=C(O)[C@@H]1C[C@H]1COc1ccc(-c2cc(C(F)(F)F)cnc2Cl)cc1 (racemic) [Example 122, Trans-2-((4-(2-chloro-5-(trifluoromethyl)pyridin-3-yl)phenoxy)methyl)cyclopropanecarboxylic acid] | 1350
CCOc1ccc(F)c(-c2ccc(OC[C@@H]3C[C@H]3C(=O)O)cc2)c1 (racemic) [Example 68, Trans-2-(((5′-ethoxy-2′-fluoro-[1,1′-biphenyl]-4-yl)oxy)methyl) cyclopropanecarboxylic acid] | 660
O=C(O)[C@@H]1C[C@H]1COc1ccc(-c2cc(Oc3ccccc3)cnc2Cl)cc1 (racemic) [Example 110, Trans-2-((4-(2-chloro-5-phenoxypyridin-3-yl)phenoxy)methyl)cyclopropanecarboxylic acid] | 430
CC1(C)Cc2c(ccc(F)c2-c2ccc(OCC3CC3C(=O)O)cc2)O1 (centres unmarked) [Example 22, 2-((4-(5-Fluoro-2,2-dimethyl-2,3-dihydrobenzofuran-4-yl)phenoxy)methyl) cyclopropanecarboxylic acid] | 1250
CC(C)Oc1cc(-c2ccc(OC[C@@H]3C[C@H]3C(=O)O)cc2)c(F)cn1 (racemic) [Example 70, Trans-2-((4-(5-fluoro-2-isopropoxypyridin-4-yl)phenoxy)methyl)cyclopropanecarboxylic acid] | 2400
CC(C)Oc1cc(-c2ccc(OC[C@@H]3C[C@H]3C(=O)O)cc2)c(F)c(C(F)(F)F)c1 (racemic) [Example 49, Trans-2-(((2′-fluoro-5′-isopropoxy-3′-(trifluoromethyl)-[1,1′-biphenyl]-4-yl)oxy)methyl)cyclopropanecarboxylic acid] | 1670
CC(C)Oc1ccc(F)c(-c2ccc(C[C@H]3C[C@H]3CC(=O)O)cc2)c1 (racemic) [Example 34, Cis-2-(2-((2′-fluoro-5′-isopropoxy-[1,1′-biphenyl]-4-yl)methyl)cyclopropyl)acetic acid] | 430
COc1ncc(Cl)cc1-c1ccc(CC[C@@H]2C[C@H]2C(=O)O)cc1 (racemic) [Example 78, Trans-2-(4-(5-chloro-2-methoxypyridin-3-yl)phenethyl) cyclopropanecarboxylic acid] | 6090
CC(C)Oc1cc(F)cc(-c2ccc(OC[C@@H]3C[C@H]3C(=O)O)cc2F)c1 (racemic) [Example 60, Trans-2-(((2,3′-difluoro-5′-isopropoxy-[1,1′-biphenyl]-4-yl)oxy)methyl) cyclopropanecarboxylic acid] | 570
Cc1ccc(Oc2ccc(F)c(-c3ccc(OC[C@@H]4C[C@H]4C(=O)O)c(F)c3)c2)cn1 (racemic) [Example 103, Trans-2-(((2′,3-difluoro-5′-((6-methylpyridin-3-yl)oxy)-[1,1′-biphenyl]-4-yl)oxy)methyl)cyclopropanecarboxylic acid] | 170
CC(C)Oc1ccc(F)c(-c2ccc(OC[C@H]3C[C@H]3C(=O)O)cc2)c1 (single isomer, unassigned) [Example 7] | 2810
Cc1cc(-c2cc(OC(C)C)ccc2F)ccc1OC[C@@H]1C[C@H]1C(=O)O (racemic) [Example 46, Trans-2-(((2′-fluoro-5′-isopropoxy-3-methyl-[1,1′-biphenyl]-4-yl)oxy)methyl)cyclopropanecarboxylic acid] | 310
Cc1cc(-c2ccc(OC[C@@H]3C[C@H]3C(=O)O)cc2)n(-c2ccc(Cl)cc2)n1 (racemic) [Example 82, Trans-2-((4-(1-(4-chlorophenyl)-3-methyl-1H-pyrazol-5-yl)phenoxy)methyl) cyclopropanecarboxylic acid] | 4960
O=C(O)C1CC1COc1ccc(-c2cc(OC(F)(F)F)ccc2F)cc1 (racemic) [Example 51, Trans-2-(((2′-fluoro-5′-(trifluoromethoxy)-[1,1′-biphenyl]-4-yl)oxy)methyl)cyclopropanecarboxylic acid] | 470
Cc1ccc(Oc2ccc(F)c(-c3ccc(OCC4C[C@@H]4C(=O)O)cc3)c2)cn1 (some centres unmarked) [Example 116] | 90
